# Legend:
# [1] = tested on: G-CSF, eotaxin, and IP-10; assay: Peritoneal fluid cytokine/chemokine magnetic bead panel; type: in vivo, mouse
# Experimental: After animals were euthanized, 1 ml of sterile PBS was injected into the peritoneal cavity, the abdominal area was gently massaged, and the fluid collected. The collected fluid was centrifuged at 1,390 rpm for 5 min at 4° C. and the resulting supernatant was then stored at −80° C. Levels of chemokines and cytokines were analyzed using a MCYTOMAG-70K-PX32 (Millipore, Billerica, Mass.) following manufacturer's instructions. Briefly, 200 μl of wash buffer was added to each well and incubated for 10 min at room temperature in a plate shaker. After incubation, the wash buffer was decanted and the plate was inverted and tapped on absorbent towel several times. Then, 25 μl of assay buffer was added to each well followed by 25 μl of concentration standards, assay controls, or samples. The premixed bottle was vortexed and 25 μl of the beads were added to each well. The plate was incubated overnight at 4° C., protected from light. Then the plate was incubated for 1 min on the hand-held magnet and the well content was gently decanted and tapped on absorbent pads. Each well was washed twice using 200 μl of wash buffer, followed by the incubation on the hand-held magnet. Antibody detection solution was allowed to warm to room temperature, and then 25 μl was added to each well and incubated for 1 h at room temperature on a plate shaker, protected from light. Next, 25 μl of Streptavidin-Phycoerythrin was added to each well containing the detection antibodies and incubated for 30 min at room temperature protected from light on a plate shaker. After the incubation, the plate was washed twice as previously described and 150 μl of Sheath Fluid was added to each well. The plate was analyzed using MAGPIX™ instrument and xPONENT software solutions, version 4.2.
# [2] = tested on: endometriotic lesions; assay: Immunohistochemistry of lesions (CK8, ERα, PR); type: in vivo, mouse; details: PR immunohistochemical staining, lesions from HCQ-treated mice
# Experimental: Collected samples were immediately preserved in 10% neutral buffered formalin at the animal facility. Samples were embedded in paraffin, sectioned, and transferred to slides for hematoxylin/eosin and immunohistochemical staining. A pathologist reviewed each case and delimited the region of interest, containing epithelial and stromal cells, for each specimen. A mouse tissue microarray was prepared at the Tissue Core Facility at the Moffitt Cancer Center. The mouse tissue microarray contained a total of 113 core samples, which included 10 uterine horns and 10 ovaries from both PBS and HCQ treated mice. As control specimens for the utilized antibodies, the TMA included mouse mammary tissue, liver, small intestine, and lymph nodes from a PBS treated mouse. Lesions were analyzed from independent blocks. Slides were stained using a Leica Bond RX automated system (Leica Biosytems, Buffalo Grove, Ill.) following manufacturers instructions with proprietary reagents. Slides were deparaffinized on an automated system with Dewax Solution (Leica Biosystems). […]
# [3] = tested on: life-extended human endometriotic cells; assay: CellTiter-glo survival assay, life-extended human endometriotic cells, HCQ; type: cell-based; details: 25 μM HCQ, 5 days, cells from two different types of lesions, p<0.0001
# Experimental: Primary human endometriotic cells culture conditions and life extension have been previously described. These cells were derived from two different types of lesions (two independent patients) which were assessed separately as described below. Briefly, cells were maintained in MCDB 131:Medium 199 (1:1 ratio) supplemented with 8% FBS, penicillin/streptomycin, and insulin/transferrin/selenium (ITS). Cells were life-extended using SV40 Large T antigen. Retroviral particles generated in HEK293T were used to infect the primary cells. Media containing puromycin (2.5 μg/ml) was used to select primary cells resistant colonies. In addition, we obtained the T-HESC cell line, which are human endometrial stromal cells derived from a uterine myoma (ATCC, Manassas, Va.). This cell line was maintained in phenol red-free DMEM/F12 (1:1) containing 8% charcoal-dextran treated FBS, 500 ng/mL puromycin, 1% ITS+ Premix (BD Bioscience, San Jose, Calif.), and 15 mM HEPES. The cell lines used in the present study were tested to be mycoplasma negative and STR (short tandem repeat) profiled (Genetica DNA Laboratories, Cincinnati, Ohio). Endometriotic cells were seeded at 50,000 cells/well in a 24-well plate, whereas T-HESC cells were seeded at 250,000 cells/well in a 6-well plate. […] Cell viability was then assessed using CellTiter-glo reagent (Promega, Madison, Wis.).
# [4] = HCQ-treated vs PBS-treated mice
structure (smiles),measurement,setting,value
"CCN(CCO)CCCC(C)Nc1ccnc2cc(Cl)ccc12 (centres unmarked) [HCQ, hydroxychloroquine]",IP-10 in peritoneal fluid,"[1]; HCQ-treated (n=5) vs PBS-treated mice, p=0.0079",significantly increased
same,G-CSF in peritoneal fluid,[1]; [4],remained unchanged
same,eotaxin in peritoneal fluid,[1]; [4],remained unchanged
same,stained lesions with absence of glandular components,[2],four out of the seven
same,cell survival of human endometriotic cells,[3],marked reduction
